Reference: patent US8952024B2, “Herbicidal pyrimidone derivatives” (E I du Pont de Nemours and Company, priority 2009, dated 2015)

Assays:
Format in all cases: in vivo
[1] = system: barnyardgrass (Echinochloa crus-galli); test: Test A pre-/postemergence plant response
Outline: (§1)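 Pre: directed soil spray on seeded loam/sand blend. Post: same formulation (non-phytotoxic solvent + surfactant) on 2–10 cm plants, 1–2 leaf stage. Greenhouse ~10 d; visual injury score 0–100 vs untreated.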

[2] = system: pigweed (Amaranthus retroflexus); test: Test A pre-/postemergence plant response
Outline: as §1

[3] = system: Italian ryegrass (Lolium multiflorum); test: Test B pre-/postemergence plant response; conditions: for Ryegrass, Italian plant response rating (0 to 100 scale): 0 is no effect, 13 to 15 days
Outline: (§2)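 Each species received compound formulated in non-phytotoxic solvent with surfactant, either at planting into a loam and sand blend or as a foliar spray once plants reached 2 to 18 cm in peat-based medium. Plants stayed in the greenhouse 13 to 15 days before visual evaluation against controls, scored 0 (no effect) to 100 (complete control).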

[4] = system: Surinam grass (Brachiaria decumbens); test: Test B pre-/postemergence plant response; conditions: for Surinam Grass plant response rating (0 to 100 scale): 0 is no effect, 13 to 15 days
Outline: as §2

[5] = system: blackgrass (Alopecurus myosuroides); test: Test B pre-/postemergence plant response; conditions: for Blackgrass plant response rating (0 to 100 scale): 0 is no effect, 13 to 15 days
Outline: as §2

[6] = system: downy bromegrass (Bromus tectorum); test: Test B pre-/postemergence plant response; conditions: for Bromegrass, Downy plant response rating (0 to 100 scale): 0 is no effect, 13 to 15 days
Outline: as §2

[7] = system: goosegrass (Eleusine indica); test: Test B pre-/postemergence plant response; conditions: for Goosegrass plant response rating (0 to 100 scale): 0 is no effect, 13 to 15 days
Outline: as §2

[8] = system: large crabgrass (Digitaria sanguinalis); test: Test B pre-/postemergence plant response; conditions: for Crabgrass, Large plant response rating (0 to 100 scale): 0 is no effect, 13 to 15 days
Outline: as §2

[9] = system: morningglory (Ipomoea coccinea); test: Test B pre-/postemergence plant response; conditions: for Morningglory plant response rating (0 to 100 scale): 0 is no effect, 13 to 15 days
Outline: as §2

[10] = system: velvetleaf (Abutilon theophrasti); test: Test B pre-/postemergence plant response; conditions: for Velvetleaf plant response rating (0 to 100 scale): 0 is no effect, 13 to 15 days
Outline: as §2

[11] = system: wheat (Triticum aestivum); test: Test B pre-/postemergence plant response; conditions: for Wheat plant response rating (0 to 100 scale): 0 is no effect, 13 to 15 days
Outline: as §2

[12] = system: woolly cupgrass (Eriochloa villosa); test: Test B pre-/postemergence plant response; conditions: for Cupgrass, Woolly plant response rating (0 to 100 scale): 0 is no effect, 13 to 15 days
Outline: as §2

[13] = system: yellow nutsedge (Cyperus esculentus); test: Test B pre-/postemergence plant response; conditions: for Nutsedge, Yellow plant response rating (0 to 100 scale): 0 is no effect, 13 to 15 days
Outline: as §2

[14] = Postemergence, 125 g ai/ha, visual injury, 0 to 100 scale (0 no effect, 100 complete control), approx. ten days
[15] = Postemergence, 500 g ai/ha, 0 to 100 scale, 0 = no effect, 100 = complete control, approx. ten days
[16] = Preemergence, 125 g ai/ha, 0 to 100 scale, 0 = no effect, 100 = complete control
[17] = Preemergence, 500 g ai/ha, visual injury, 0 to 100 scale (0 no effect, 100 complete control), approx. ten days
[18] = 31 g ai/ha, postemergence, scale 0 to 100, 0 is no effect, 100 is complete control
[19] = 62 g ai/ha, postemergence, 100 is complete control
[20] = Postemergence, 125 g ai/ha, visual rating after 13 to 15 days, scale 0 (no effect) to 100 (complete control)
[21] = Postemergence, 250 g ai/ha, scale 0 to 100 (0 no effect, 100 complete control)
[22] = Preemergence, 31 g ai/ha, scale 0 to 100 (0 no effect, 100 complete control)
[23] = Preemergence, 62 g ai/ha, scale 0 to 100, 0 no effect, 100 complete control
[24] = Preemergence, 125 g ai/ha, scale 0 to 100, 0 no effect, 100 complete control
[25] = 250 g ai/ha, Preemergence, 0 to 100 scale
[26] = Postemergence, 125 g ai/ha, 0 to 100 scale where 0 is no effect and 100 is complete control

CCCc1ncc(C(=O)C2=C(O)CCCC2=O)c(=O)n1CCC [Compound 72]
0: Plant response rating, Ryegrass, Italian [3, 18] | Ryegrass, Italian plant response rating (0 to 100 scale) [3, 19] | Plant response rating, Ryegrass, Italian [3, 22] | Plant response rating, Ryegrass, Italian [3, 23] | Plant response rating, Ryegrass, Italian [3, 24] | Plant response rating, Blackgrass [5, 18] | Blackgrass plant response rating (0 to 100 scale) [5, 19] | Plant response rating, Blackgrass [5, 20] | Plant response rating, Blackgrass [5, 21] | Plant response rating, Blackgrass [5, 22] | Plant response rating, Blackgrass [5, 23] | Plant response rating, Blackgrass [5, 24] | Plant response rating, Bromegrass, Downy [6, 18] | Bromegrass, Downy plant response rating (0 to 100 scale) [6, 19] | Plant response rating, Bromegrass, Downy [6, 25] | Plant response rating, Bromegrass, Downy [6, 20] | Plant response rating, Bromegrass, Downy [6, 22] | Plant response rating, Bromegrass, Downy [6, 23] | Plant response rating, Bromegrass, Downy [6, 24] | Plant response rating, Morningglory [9, 22] | Plant response rating, Wheat [11, 18] | Plant response rating, Wheat [11, 22] | Plant response rating, Wheat [11, 23] | Plant response rating, Wheat [11, 24] | Plant response rating, Cupgrass, Woolly [12, 22] | Plant response rating, Cupgrass, Woolly [12, 23]
50: Plant response rating, Pigweed [2, 16] | Plant response rating, Cupgrass, Woolly [12, 20] | Plant response rating, Cupgrass, Woolly [12, 21]
65: Goosegrass plant response rating (0 to 100 scale) [7, 19] | Plant response rating, Goosegrass [7, 20] | Plant response rating, Morningglory [9, 24] | Plant response rating, Cupgrass, Woolly [12, 25] | Nutsedge, Yellow plant response rating (0 to 100 scale) [13, 19] | Plant response rating, Nutsedge, Yellow [13, 20]
70: Plant response rating, Goosegrass [7, 21] | Plant response rating, Nutsedge, Yellow [13, 23]
45: Plant response rating, Surinam Grass [4, 22] | Plant response rating, Cupgrass, Woolly [12, 18] | Cupgrass, Woolly plant response rating (0 to 100 scale) [12, 19] | Plant response rating, Cupgrass, Woolly [12, 24]
30: Plant response rating, Ryegrass, Italian [3, 21]
55: Plant response rating, Morningglory [9, 23]
90: Plant response rating, Barnyardgrass [1, 15] | Plant response rating, Pigweed [2, 17] | Plant response rating, Crabgrass, Large [8, 21] | Plant response rating, Morningglory [9, 20] | Plant response rating, Morningglory [9, 21]
75: Plant response rating, Surinam Grass [4, 18] | Plant response rating, Surinam Grass [4, 23] | Plant response rating, Surinam Grass [4, 24] | Plant response rating, Crabgrass, Large [8, 18] | Plant response rating, Nutsedge, Yellow [13, 21] | Plant response rating, Nutsedge, Yellow [13, 24]
95: Plant response rating, Crabgrass, Large [8, 22]
98: Plant response rating, Goosegrass [7, 23] | Plant response rating, Velvetleaf [10, 18] | Plant response rating, Velvetleaf [10, 22]
20: Plant response rating, Bromegrass, Downy [6, 21] | Plant response rating, Morningglory [9, 18]
85: Plant response rating, Crabgrass, Large [8, 20] | Morningglory plant response rating (0 to 100 scale) [9, 19]
80: Barnyardgrass plant response rating [1, 14] | Pigweed plant response rating [2, 14] | Surinam Grass plant response rating (0 to 100 scale) [4, 19] | Plant response rating, Surinam Grass [4, 20] | Crabgrass, Large plant response rating (0 to 100 scale) [8, 19]
60: Plant response rating, Barnyardgrass [1, 17] | Plant response rating, Goosegrass [7, 18] | Plant response rating, Goosegrass [7, 22]
10: Plant response rating, Barnyardgrass [1, 16] | Plant response rating, Ryegrass, Italian [3, 20] | Plant response rating, Wheat [11, 20] | Plant response rating, Wheat [11, 21]
40: Plant response rating, Nutsedge, Yellow [13, 22]
5: Plant response rating, Blackgrass [5, 25] | Wheat plant response rating (0 to 100 scale) [11, 19]
100: Plant response rating, Pigweed [2, 15] | Plant response rating, Surinam Grass [4, 21] | Plant response rating, Goosegrass [7, 25] | Plant response rating, Goosegrass [7, 24] | Plant response rating, Crabgrass, Large [8, 25] | Plant response rating, Crabgrass, Large [8, 23] | Plant response rating, Crabgrass, Large [8, 24] | Velvetleaf plant response rating (0 to 100 scale) [10, 19] | Plant response rating, Velvetleaf [10, 20] | Plant response rating, Velvetleaf [10, 21] | Plant response rating, Velvetleaf [10, 23] | Plant response rating, Velvetleaf [10, 24]
35: Plant response rating, Nutsedge, Yellow [13, 18]

CCCCCCn1c(-c2ccccc2)ncc(C(=O)C2=C(O)CCCC2=O)c1=O [Compound 94]
30: Plant response rating, Barnyardgrass [1, 17]
60: Surinam Grass plant response rating (0 to 100 scale) [4, 19]
90: Plant response rating, Barnyardgrass [1, 26] | Plant response rating, Barnyardgrass [1, 15] | Plant response rating, Crabgrass, Large [8, 20] | Plant response rating, Crabgrass, Large [8, 21]
10: Plant response rating, Ryegrass, Italian [3, 21] | Blackgrass plant response rating (0 to 100 scale) [5, 19] | Plant response rating, Blackgrass [5, 20]
65: Cupgrass, Woolly plant response rating (0 to 100 scale) [12, 19] | Plant response rating, Cupgrass, Woolly [12, 20] | Plant response rating, Nutsedge, Yellow [13, 21]
75: Crabgrass, Large plant response rating (0 to 100 scale) [8, 19] | Morningglory plant response rating (0 to 100 scale) [9, 19]
85: Plant response rating, Goosegrass [7, 21]
45: Plant response rating, Goosegrass [7, 18]
55: Plant response rating, Morningglory [9, 18]
5: Plant response rating, Blackgrass [5, 18] | Plant response rating, Wheat [11, 21]
80: Plant response rating, Surinam Grass [4, 21] | Plant response rating, Velvetleaf [10, 21]
100: Plant response rating, Pigweed [2, 26] | Plant response rating, Pigweed [2, 15] | Plant response rating, Pigweed [2, 17] | Plant response rating, Morningglory [9, 21]
0: Plant response rating, Barnyardgrass [1, 16] | Plant response rating, Ryegrass, Italian [3, 18] | Ryegrass, Italian plant response rating (0 to 100 scale) [3, 19] | Plant response rating, Bromegrass, Downy [6, 18] | Bromegrass, Downy plant response rating (0 to 100 scale) [6, 19] | Plant response rating, Bromegrass, Downy [6, 20] | Plant response rating, Bromegrass, Downy [6, 21] | Plant response rating, Wheat [11, 18] | Wheat plant response rating (0 to 100 scale) [11, 19]
70: Plant response rating, Pigweed [2, 16] | Goosegrass plant response rating (0 to 100 scale) [7, 19] | Plant response rating, Crabgrass, Large [8, 18] | Velvetleaf plant response rating (0 to 100 scale) [10, 19] | Plant response rating, Cupgrass, Woolly [12, 21]
20: Plant response rating, Blackgrass [5, 21] | Plant response rating, Nutsedge, Yellow [13, 18] | Nutsedge, Yellow plant response rating (0 to 100 scale) [13, 19]
